Experiments:
aged mice = experiment: Blood pressure by VPR tail-cuff method in aged mice; assay type: in vivo, mouse
Method: (§1) Animal study protocols. This example was performed according to the guide lines of the National Institute of Health on the care and use of laboratory animals and approved by the institutional Animal Care and Use Committee of University of Oklahoma Health Science Center. AU mice were housed in cages at room temperature (2S±PC) and were provided with Purina laboratory chow No 5001) and tap Water and lithium. 6 adult mice (12 months) and 20 old mice (24-26 months) mice were next in this study. The old (aged) mice were randomly divided into three subgroups and each group had 6 or 7 mice. One subgroup received compound H (10 mg/kg/day1, IP, Enamine LLC, Monmouth Jct., NJ) and one group received an equal volume of DMSO (dimethyl sulfoxide, 5%) and served as a control. The third group received no treatment Blood pressure was measured before and after treatment with the active agent at 1 week and 2 week. Pulse wave velocity (PWV) was measured after 2 weeks treatment with active agent all animals were sacrificed and perfused transcardially with PBS under deep anesthesia (ketamine xylazine, 90/10 mg, IP). The aortas were then quickly removed, washed and cut into pieces for subsequent analyses.
Measurement of Blood Pressure: Blood pressure was measured by the volume-pressure recording (VPR) tail-cuff method with slight (28° C.) but not heating of the tail using it CODA none-invasive blood pressure monitoring system (Kent Scientific). This method of measurement has been validated by using a telemetry system. Animals were gently handled and trained for the VPR tail-cuff measurement to minimize handling stress. No signs of stress were observed during BP measurements. The operator was also strictly trained for the measurement procedure. At least 20 stable cycles data were obtained for the result analysis for each measurement.

secreted Klotho = experiment: Western blot of secreted Klotho in kidney and serum of aged mice; assay type: in vivo, mouse
Klotho mRNA = experiment: RT-PCR of Klotho mRNA in kidney of aged mice; assay type: in vivo, mouse
Method: as §1
Reverse transcription-PCR (RT-PCR): Total RNA was extracted using a Direct˜zol T!vl RNA Miniprep kit (Zymo Research, Irvine CA) from kidney of adult and aged mice. […]

MMP2 = MMP2 activity by zymogram PAGE, aortas of aged mice; assay type: in vivo, mouse; details: zymography
Method: as §1, with “The aortas were then quickly removed, washed and cut into pieces for subsequent analyses.” left out
(§2) Measurements for MMP2 and MMP9 Activity. MMP2 and MMP9 activity were measured by Zymogram PAGE (Bio˜-Rad). Briefly Lysates from thoracic aorta were quantified using BCA assay (Pierce) and prepared under non-reducing, non-denaturing conditions. […]

MMP9 [1] = experiment: MMP9 activity by zymogram PAGE, aortas of aged mice; assay type: in vivo, mouse; details: zymography
Method: as §1, with “The aortas were then quickly removed, washed and cut into pieces for subsequent analyses.” left out
as §2

MMP9 [2] = experiment: Western blot of MMP9, aortas of aged mice; assay type: in vivo, mouse
Method: as §1, with “The aortas were then quickly removed, washed and cut into pieces for subsequent analyses.” left out
(§3) Western Blot Analysis: Protein samples from the thoracic aorta were prepared in Lysis buffer as described previously. […] Protein abundance on western blots was quantified densitometry using Image lab software (Bio-Rad, Hercules, CA).

TGF-β3 = experiment: Western blot of TGF-β3, aortas of aged mice; assay type: in vivo, mouse
Method: as §1, with “The aortas were then quickly removed, washed and cut into pieces for subsequent analyses.” left out
as §3

RUNX2 = experiment: Western blot of RUNX2, aortas of aged mice; assay type: in vivo, mouse
Method: as §1, with “The aortas were then quickly removed, washed and cut into pieces for subsequent analyses.” left out
as §3

ALP = experiment: Western blot of ALP, aortas of aged mice; assay type: in vivo, mouse
Method: as §1, with “The aortas were then quickly removed, washed and cut into pieces for subsequent analyses.” left out
as §3

SIRT1 = experiment: Western blot of SIRT1 and acetyl p53, aortas of aged mice; assay type: in vivo, mouse
Method: as §1, with “The aortas were then quickly removed, washed and cut into pieces for subsequent analyses.” left out
as §3

eNOS = experiment: Western blot of eNOS and p-eNOS, aortas of aged mice; assay type: in vivo, mouse
Method: as §1
(§4) Western Blot Analysis: Protein samples from the thoracic aorta were prepared in Lysis buffer as described previously. The proteins ([…] were resolved by SOS-PAGE and transferred to a nitrocellulose membrane (Bio-Rad). The membrane was then incubated overnight (4° C.) with a primary antibody against collagen-1-elastin. M1′v1P2; MMP9, ALP (Abeam1 1:1000), TGF-1, TGF˜N3 (Santa Cmz, 1:100). RUX2, or aNTulmliu (Cell Signaling. 1:1000). Goat autimouse or goat anti rabbit horseradish peroxidase (1:2000 . . . 1:5,000; Santa Cruz Biotechnology) was used as a secondary antibody find incubated for 1 hour at room temperature. Specific proteins were detected by chemiluminescent methods using Amersham™ western blotting detection reagents (GE Healthcare, UK). Protein abundance on western blots was quantified densitometry using Image lab software (Bio-Rad, Hercules, CA).

[3] = test system: mouse vascular aortic smooth muscle cells (MOVAS); experiment: Western blot of treated MOVAS cells; assay type: cell-based; details: 10 μM active agent, 16 h
Method: After cells confluent, the media were switched to DMEM with or without 2° A1 serum, and the cells were then treated with 10 μM active agent or 5 nM secreted Klotho for another 16 h then harvested for western blot analysis.
as §4

[4] = 10 mg/kg/day IP, 2 weeks treatment

O=C(Nc1ccccc1Cl)c1c[nH]c2ccccc12 [active agent, N-(2-chlorophenyl)-Ul-indde-3-carboxamide]
Diastolic blood pressure (aged mice; [4]): decreased
Mean blood pressure (aged mice; [4]): decreased
Pulse pressure (aged mice; [4]): decreased
Systolic blood pressure (aged mice; [4]): decreased
Blood pressure (aged mice; after 1 week of treatment): decreased
Secreted Klotho protein expression (secreted Klotho; kidney of 24-26 month-old mice): significantly increased
Circulating levels of secreted Klotho (secreted Klotho; serum of aged mice): markedly increased
Secreted Klotho mRNA expression (Klotho mRNA): increased
MMP2 activity (MMP2): decreased
MMP9 activity (MMP9 [1]): decreased
MMP9 protein expression (MMP9 [2]): decreased
TGF-β3 expression (TGF-β3): decreased
RUNX2 expression (RUNX2): decreased
ALP expression (ALP): decreased
SirT1 activity (deacetylation of p53) (SIRT1; aorta of old mice): increased
SIRT1 expression (SIRT1; aortas of aged mice): did not affect
eNOS activity (eNOS; aortas of aged mice): increased
eNOS expression (eNOS; old mice, western blot): increased
p-eNOS expression (eNOS; old mice, western blot): increased
MMP2 expression ([3]; Klotho free medium (KL(−))): did not affect
MMP9 expression ([3]; Klotho free medium (KL(−))): did not affect
TGFβ1 expression ([3]; Klotho free medium (KL(−))): did not affect
TGFβ3 expression ([3]; Klotho free medium (KL(−))): did not affect
MMP2 expression ([3]; regular medium): did not change
MMP9 expression ([3]; regular medium): did not change
TGFβ1 expression ([3]; regular medium): did not change
TGFβ3 expression ([3]; regular medium): did not change
